# Legend:
# Assay type in all cases: in vivo
# [1] = system: Veronica persica (VERPE); assay: E. Herbicidal post-emergence efficacy, VERPE
# Method in brief: (§1)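 Greenhouse post-emergence spray, one-leaf stage (2–3 wk after sowing, sandy loam); WP/EC formulation, aqueous + 0.5% additive, 600 l/ha water; rates 320 g/ha or less. Visual rating ~3 wk later vs untreated; 0% = control-like, 100% = dead.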
# [2] = system: Alopecurus myosuroides (ALOMY); assay: A. Herbicidal pre-emergence efficacy, ALOMY; settings: scored visually after about 3 weeks vs untreated controls
# Method in brief: (§2)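 Pre-emergence soil-surface spray in sandy loam pots, WP/EC in water plus 0.5% additive, 600 L/ha. Visual % damage rating after about 3 weeks in greenhouse vs. untreated; 0% = control-like, 100% = dead plants. Rates up to 1280 g/ha.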
# [3] = system: Echinochloa crus-galli (ECHCG); assay: B. Herbicidal post-emergence efficacy, ECHCG; settings: rated visually after about 3 weeks
# Method in brief: (§3)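 Readout: visual % kill vs untreated, ~3 wk post-spray. Plants in sandy loam pots, treated at one-leaf stage; spray = WP/EC in water + 0.5% additive, 600 L/ha, dose ≤1280 g/ha.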
# [4] = system: Lolium rigidum (LOLRI); assay: C. Herbicidal pre-emergence efficacy, LOLRI; settings: scored after about 3 weeks
# Method in brief: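 Pre-emergence test: formulated compounds sprayed as aqueous suspension or emulsion with 0.5% additive at 600 l/ha onto soil covering sown seeds, at rates corresponding to 320 g/ha or less. After about 3 weeks in greenhouse, efficacy scored visually as percent versus untreated controls (100% = plants dead).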
# [5] = system: Digitaria sanguinalis (DIGSA); assay: A. Herbicidal pre-emergence efficacy, DIGSA; settings: scored visually after about 3 weeks vs untreated controls
# Method in brief: as §2
# [6] = system: Setaria viridis (SETVI); assay: E. Herbicidal post-emergence efficacy, SETVI
# Method in brief: as §1
# [7] = system: Abutilon theophrasti (ABUTH); assay: E. Herbicidal post-emergence efficacy, ABUTH
# Method in brief: as §1
# [8] = system: Kochia scoparia (KCHSC); assay: B. Herbicidal post-emergence efficacy, KCHSC; settings: for Post-emergence efficacy against KCHSC in %: rated visually after about 3 weeks; for Post-emergence efficacy against KCHSC: 1280 g/ha
# Method in brief: as §3
SMILES,Post-emergence efficacy against VERPE in % ([1]; application rate 80 g/ha) [%],Post-emergence efficacy against VERPE in % ([1]; application rate 320 g/ha) [%],Pre-emergence efficacy against ALOMY ([2]; 1280 g/ha) [%],Post-emergence efficacy against ECHCG in % ([3]; 80 g/ha) [%],Post-emergence efficacy against ECHCG in % ([3]; 320 g/ha) [%],Post-emergence efficacy against ECHCG in % ([3]; 1280 g/ha) [%],Pre-emergence efficacy against LOLRI ([4]; 320 g/ha) [%],Pre-emergence efficacy against DIGSA ([5]; 80 g/ha) [%],Pre-emergence efficacy against DIGSA ([5]; 320 g/ha) [%],Pre-emergence efficacy against DIGSA ([5]; 1280 g/ha) [%],Post-emergence efficacy against SETVI in % ([6]; application rate 80 g/ha) [%],Post-emergence efficacy against SETVI in % ([6]; application rate 320 g/ha) [%],Post-emergence efficacy against ABUTH in % ([7]; application rate 80 g/ha) [%],Post-emergence efficacy against ABUTH in % ([7]; application rate 320 g/ha) [%],Post-emergence efficacy against KCHSC in % ([8]; 80 g/ha) [%],Post-emergence efficacy against KCHSC in % ([8]; 320 g/ha) [%],Post-emergence efficacy against KCHSC [8] [%],Pre-emergence efficacy against ALOMY ([2]; 320 g/ha) [%],Pre-emergence efficacy against LOLRI ([4]; 80 g/ha) [%]
O=S(=O)(CC1CC(F)(F)C1)Oc1c(F)cccc1Oc1ncc(Cl)cn1 [Example I-53],100,100,100,90,90,90,100,100,100,100,100,100,100,100,90,90,90,–,–
O=S(=O)(CCCC(F)F)Oc1c(F)cccc1Oc1ncc(Cl)cn1 [Example I-56],100,100,100,–,90,90,100,100,100,100,80,100,–,100,90,90,90,90,100
